Read-outs that look alike come from different tables or passages of the source. Each block holds one compound with its values, some of them ahead of it.
Key:
[1] = pKa measurement of unformulated amine lipid (fluorescence, method of Jayaraman et al.); format: physicochemical; conditions: 100 μM in 0.1 M phosphate buffer pH 4.5-9.0
Procedure: The pKa of each amine lipid was determined according to the method in Jayaraman, et al. (Angewandte Chemie, 2012) with the following adaptations. […] Lipid was diluted to 100 μM in 0.1 M phosphate buffer (Boston Bioproducts) where the pH ranged from 4.5-9.0. Fluorescence intensity was measured using excitation and emission wavelengths of 321 nm and 448 nm.

[2] = LNP average particle size and polydispersity by dynamic light scattering (Malvern Zetasizer); format: physicochemical
Excerpt: The LNPs have a size of about 1 to about 1,000 nm, about 10 to about 500 nm, about 20 to about 500 nm, in a sub-embodiment about 50 to about 400 nm, in a sub-embodiment about 50 to about 300 nm, in a sub-embodiment about 50 to about 200 nm, and in a sub-embodiment about 50 to about 150 nm, and in another sub-embodiment about 60 to about 120 nm. Preferably, the LNPs have a size from about 60 nm to about 100 nm. The average sizes (diameters) of the fully formed LNP, may be measured by dynamic light scattering on a Malvern Zetasizer. The LNP sample is diluted in phosphate buffered saline (PBS) so that the count rate is approximately 200-400 kcps. The data is presented as a weighted average of the intensity measure.
The LNPs disclosed herein have a size (e.g. Z-average diameter) of about 1 to about 250 nm. In some embodiments, the LNPs have a size of about 10 to about 200 nm. In further embodiments, the LNPs have a size of about 20 to about 150 nm. In some embodiments, the LNPs have a size of about 50 to about 150 nm. In some embodiments, the LNPs have a size of about 50 to about 100 nm. In some embodiments, the LNPs have a size of about 50 to about 120 nm. In some embodiments, the LNPs have a size of about 60 to about 100 nm. In some embodiments, the LNPs have a size of about 75 to about 150 nm. In some embodiments, the LNPs have a size of about 75 to about 120 nm. In some embodiments, the LNPs have a size of about 75 to about 100 nm. Unless indicated otherwise, all sizes referred to herein are the average sizes (diameters) of the fully formed nanoparticles, as measured by dynamic light scattering on a Malvern Zetasizer. The nanoparticle sample is diluted in phosphate buffered saline (PBS) so that the count rate is approximately 200-400 kcps. The data is presented as a weighted-average of the intensity measure (Z-average diameter).
Dynamic Light Scattering (“DLS”) is used to characterize the polydispersity index (“pdi”) and size of the LNPs of the present disclosure. DLS measures the scattering of light that results from subjecting a sample to a light source. PDI, as determined from DLS measurements, represents the distribution of particle size (around the mean particle size) in a population, with a perfectly uniform population having a PDI of zero.
LNP compositions are analyzed for average particle size, polydispersity index (pdi), total RNA content, encapsulation efficiency of RNA, and zeta potential. LNP compositions may be further characterized by lipid analysis, AF4-MALS, NTA, and/or cryo-EM. Average particle size and polydispersity are measured by dynamic light scattering (DLS) using a Malvern Zetasizer DLS instrument. LNP samples were diluted with PBS buffer prior to being measured by DLS. Z-average diameter which is an intensity-based measurement of average particle size was reported along with number average diameter and pdi. A Malvern Zetasizer instrument is also used to measure the zeta potential of the LNP. Samples are diluted 1:17 (50 μL into 800 μL) in 0.1×PBS, pH 7.4 prior to measurement.

[3] = RNA encapsulation efficiency of LNP (Ribogreen fluorescence assay); format: physicochemical; conditions: N:P 6.0
Procedure: A fluorescence-based assay (Ribogreen®, ThermoFisher Scientific) is used to determine total RNA concentration and free RNA. Encapsulation efficiency is calculated as (Total RNA−Free RNA)/Total RNA. LNP samples are diluted appropriately with 1× TE buffer containing 0.2% Triton-X 100 to determine total RNA or 1× TE buffer to determine free RNA. Standard curves are prepared by utilizing the starting RNA solution used to make the compositions and diluted in 1× TE buffer+/−0.2% Triton-X 100. Diluted RiboGreen® dye (according to the manufacturer's instructions) is then added to each of the standards and samples and allowed to incubate for approximately 10 minutes at room temperature, in the absence of light. A SpectraMax M5 Microplate Reader (Molecular Devices) is used to read the samples with excitation, auto cutoff and emission wavelengths set to 488 nm, 515 nm, and 525 nm respectively. Total RNA and free RNA are determined from the appropriate standard curves.
Encapsulation efficiency is calculated as (Total RNA−Free RNA)/Total RNA. The same procedure may be used for determining the encapsulation efficiency of a DNA-based cargo component. For single-strand DNA Oligreen Dye may be used, and for double-strand DNA, Picogreen Dye.

TTR [4] = test: TTR editing in mouse liver by NGS after i.v. LNP delivery of Cas9 mRNA and sgRNA; format: in vivo; conditions: CD-1 female mice
Procedure: Preparations of various LNP compositions were prepared with amine lipids. In assays for percent liver editing in mice, Cas9 mRNA and chemically modified sgRNA were formulated in LNPs, at either a 1:1 w/w ratio or a 1:2 w/w ratio. LNPs are formulated with a composition of a given ionizable lipid (e.g. an amine lipid), DSPC, cholesterol, and PEG-2k-DMG, with a 6.0 N:P ratio.
(§1) CD-1 female mice, ranging from 6-10 weeks of age were used in each study. Animals were weighed and grouped according to body weight for preparing dosing solutions based on group average weight. LNPs were dosed via the lateral tail vein in a volume of 0.2 mL per animal (approximately 10 mL per kilogram body weight). The animals were periodically observed post dose for adverse effects for at least 24 hours post dose. Animals were euthanized at 6 or 7 days by exsanguination via cardiac puncture under isoflurane anesthesia. Blood was collected into serum separator tubes or into tubes containing buffered sodium citrate for plasma as described herein. For studies involving in vivo editing, liver tissue was collected from each animal for DNA extraction and analysis.
Cohorts of mice were measured for liver editing by Next-Generation Sequencing (NGS).
In brief, to quantitatively determine the efficiency of editing at the target location in the genome, genomic DNA was isolated and deep sequencing was utilized to identify the presence of insertions and deletions introduced by gene editing.
PCR primers were designed around the target site (e.g., B2M), and the genomic area of interest was amplified. Additional PCR was performed according to the manufacturer's protocols (Illumina) to add the necessary chemistry for sequencing. The amplicons were sequenced on an Illumina MiSeq instrument. The reads were aligned to the […] after eliminating those having low quality scores. The resulting files containing the reads were mapped to the reference genome (BAM files), where reads that overlapped the target region of interest were selected and the number of wild type reads versus the number of reads which contain an insertion, substitution, or deletion was calculated.
The editing percentage (e.g., the “editing efficiency” or “percent editing”) is defined as the total number of sequence reads with insertions or deletions over the total number of sequence reads, including wild type.
CD-1 female mice were dosed i.v. at 0.1 mpk or 0.3 mpk. At 6 days post-dose, animals were sacrificed. For animals dosed with G282 targeting TTR, blood and the liver were collected and serum TTR and editing were measured. For animals dosed with G650 targeting B2M, liver was collected and editing was measured.

TTR [5] = test: Transthyretin (TTR) ELISA analysis of mouse serum after LNP dosing; format: in vivo; conditions: for response vs control in vivo at 0.1 mg/kg: read-out: Serum TTR % TSS
Procedure: as §1
CD-1 female mice were dosed i.v. at 0.1 mpk or 0.3 mpk. […] For animals dosed with G282 targeting TTR, blood and the liver were collected and serum TTR and editing were measured. For animals dosed with G650 targeting B2M, liver was collected and editing was measured.
Blood was collected and the serum was isolated as indicated. The total mouse TTR serum levels were determined using a Mouse Prealbumin (Transthyretin) ELISA Kit (Aviva Systems Biology, Cat. OKIA00111). Briefly, sera were serial diluted with kit sample diluent to a final dilution of 10,000-fold for 0.1 mpk dose and 2,500-fold for 0.3 mpk. This diluted sample was then added to the ELISA plates and the assay was then carried out according to directions.

[6] = Table 14, Example 58: LNP, G282 1:1
[7] = Example 58: 0.1 mpk i.v., 6 days post-dose, G282 1:1
[8] = Table 16, Example 59: LNP, G282 1:1
[9] = Example 59: 0.1 mpk i.v., 7 days post-dose, G282 1:1
[10] = Table 18, Example 60: LNP, G502 1:2
[11] = Table 18, Example 60: LNP, G502 (TTR), sgRNA:Cas9 mRNA 1:2 w/w
[12] = Example 60: 0.1 mpk i.v., 6 days post-dose, G502 1:2
[13] = Mus musculus, iv, 144 h, Example 60: 0.1 mpk i.v., 6 days post-dose, G502 1:2
[14] = Table 20, Example 61: LNP, G282 1:1
[15] = Example 61: 0.1 mpk i.v., 7 days post-dose, G282 1:1
[16] = Table 26, Example 64: LNP, G282 1:1
[17] = Example 64: Dose 0.03 mpk (table) i.v., 7 days post-dose, G282 1:1

pKa [1]: 6.18 | Num Ave Size (nm) [2, 10]: 66.68 nm | PDI [2, 10]: 0.029 | Z-Ave Size (nm) [2, 10]: 82.91 nm | Encapsulation (%) [3, 11]: 98%
SMILES: CCCCCCCCCCC(=O)OCCCCCCN(CCO)CCCCCCCC(OCCCCCCCC)OCCCCCCCC [Compound 22, 6-((8,8-bis(octyloxy)octyl)(2-hydroxyethyl)amino)hexyl undecanoate]
Editing Mean % Indel (TTR [4]; [12]): 45.6% | Serum TTR (TTR [5]; [12]): 410 µg/mL | response vs control in vivo at 0.1 mg/kg (TTR [5]; [13]): 29%

pKa [1]: 6.04 | Num Ave Size (nm) [2, 10]: 61.86 nm | PDI [2, 10]: 0.054 | Z-Ave Size (nm) [2, 10]: 79.04 nm | Encapsulation (%) [3, 11]: 93%
SMILES: CCCCCCCCOC(CCCCCCCN(CCO)CCCCCCCCOC(=O)CCCCCCCC)OCCCCCCCC [Compound 23, 8-((8,8-bis(octyloxy)octyl)(2-hydroxyethyl)amino)octyl nonanoate]
Editing Mean % Indel (TTR [4]; [12]): 53.6% | Serum TTR (TTR [5]; [12]): 307 µg/mL | response vs control in vivo at 0.1 mg/kg (TTR [5]; [13]): 22%

pKa [1]: 6.19 | Num Ave Size (nm) [2, 14]: 48.37 nm | PDI [2, 14]: 0.07 | Z-Ave Size (nm) [2, 14]: 63.25 nm | Encapsulation (%) ([3]; Table 20, Example 61: LNP, G282 (TTR) 1:1 w/w): 99%
SMILES: CCCCCCCCCOC(=O)CCCCCCCN(CCO)CCCCCCCCCC(CCCCCCCC)CCCCCCCC [Compound 26, nonyl 8-((2-hydroxyethyl)(10-octyloctadecyl)amino)octanoate, reference compound]
Editing Mean % Indel (TTR [4]; [15]): 2.6% | Serum TTR (TTR [5]; [15]): 979 µg/mL | response vs control in vivo at 0.1 mg/kg (TTR [5]; Mus musculus, iv, 168 h, Example 61: 0.1 mpk i.v., 7 days post-dose, G282 1:1): 76%

More lines, now with the values behind:

SMILES: CCCCCC/C=C\COC(=O)CCCCCCCN(CCO)CCCCCCCC(OCCCCCCCC)OCCCCCCCC [Compound 16, (Z)-non-2-en-1-yl 8-((8,8-bis(octyloxy)octyl)(2-hydroxyethyl)amino)octanoate]
pKa [1]: 6.34 | Num Ave Size (nm) [2, 6]: 66.66 nm | PDI [2, 6]: 0.132 | Z-Ave Size (nm) [2, 6]: 109.5 nm | Encapsulation (%) ([3]; Table 14, Example 58: LNP, G282 (TTR) 1:1 w/w): 78% | Editing Mean % Indel (TTR [4]; [7]): 35.2% | Serum TTR (TTR [5]; [7]): 516 µg/mL | response vs control in vivo at 0.1 mg/kg (TTR [5]; Mus musculus, iv, 144 h, Example 58: 0.1 mpk i.v., 6 days post-dose, G282 1:1): 52%

SMILES: CCCCCCCCCOC(=O)CCCCCCCN(CCO)CCCCCCC(OCCCCCCC)OCCCCCCC [Compound 20, nonyl 8-((7,7-bis(heptyloxy)heptyl)(2-hydroxyethyl)amino)octanoate]
pKa [1]: 5.81 | Num Ave Size (nm) [2, 8]: 58.65 nm | PDI [2, 8]: 0.102 | Z-Ave Size (nm) [2, 8]: 84.49 nm | Encapsulation (%) ([3]; Table 16, Example 59: LNP, G282 (TTR) 1:1 w/w): 83% | Editing Mean % Indel (TTR [4]; [9]): 35.0% | Serum TTR (TTR [5]; [9]): 210 µg/mL | response vs control in vivo at 0.1 mg/kg (TTR [5]; Mus musculus, iv, 168 h, Example 59: 0.1 mpk i.v., 7 days post-dose, G282 1:1): 23%

SMILES: CCCCCCCCCOC(=O)CCCCCCCN(CCCCCCC(OCCCCCCCC)OCCCCCCCC)CCCOC(=O)NC [Compound 40, nonyl 8-((7,7-bis(octyloxy)heptyl)(3-((methylcarbamoyl)oxy)propyl)amino)octanoate]
pKa [1]: 5.71 | Num Ave Size (nm) [2, 16]: 64 nm | PDI [2, 16]: 0.06 | Z-Ave Size (nm) [2, 16]: 83 nm | Encapsulation (%) ([3]; Table 26, Example 64: LNP, G282 (TTR) 1:1 w/w): 96% | Editing Mean % Indel (TTR [4]; [17]): 27.5% | Serum TTR (TTR [5]; [17]): 417.0 µg/mL | inhibition in vivo at 0.03 mg/kg (TTR [5]; Mus musculus, iv, 168 h, Example 64: Dose 0.03 mpk (table) i.v., 7 days post-dose, G282 1:1, read-out: Serum TTR (% KD)): 27.2%

Source: patent US20260225997A1, “IONIZABLE AMINE LIPIDS” (Intellia Therapeutics, Inc., priority 2018, published 2026)
